Experimental data as given in patent US10590120B2, “Pesticidal compositions and methods” (Dow AgroSciences LLC, priority 2016, dated 2020).

Experiments:
Format in all cases: in vivo
[1] = test system: Beet Armyworm (Spodoptera exigua, LAPHEG) ("BAW"); assay: Insecticidal test for beet armyworm, 128-well diet tray assay; settings: 168 h, second instar larvae, 50 μg/cm^2 on artificial diet, 25° C., five to seven days, percent mortality averaged over eight wells
Protocol: Insecticidal Test for Beet Armyworm (Spodoptera exigua, LAPHEG) (“BAW”)
(§1) Bioassays on beet armyworm (BAW; Spodoptera exigua: Lepidoptera) are conducted using a 128-well diet tray assay. One to five second instar BAW larvae are placed in each well (3 mL) of the diet tray that had been previously filled with 1 mL of artificial diet to which 50 μg/cm^2 of the test compound (dissolved in 50 μL of 90:10 acetone-water mixture) had been applied (to each of eight wells) and then allowed to dry. Trays are covered with a clear self-adhesive cover, vented to allow gas exchange, and held at 25° C., 14:10 light-dark for five to seven days. Percent mortality is recorded for the larvae in each well; activity in the eight wells is then averaged.

[2] = test system: Cabbage Looper (Trichloplusia ni, TRIPNI) ("CL"); assay: Insecticidal test for cabbage looper, 128-well diet tray assay; settings: Trichoplusia ni, 168 h; second instar larvae, 50 μg/cm^2 on artificial diet, 25° C., five to seven days, percent mortality averaged over eight wells
Protocol: Insecticidal Test for Cabbage Looper (Trichloplusia ni, TRIPNI) (“CL”)
as §1, with “cabbage looper (CL; Trichloplusia ni:” for “beet armyworm (BAW; Spodoptera exigua:”, “CL” for “BAW”

[3] = test system: Yellow Fever Mosquito (Aedes aegypti, AEDSAE) ("YFM"); assay: Insecticidal test for yellow fever mosquito, 96-well plate larval assay; settings: about 1 day-old larvae, 4000 ppm master solution diluted, room temperature, scored for mortality after 3 days
Protocol: Insecticidal Test for Yellow Fever Mosquito (Aedes aegypti, AEDSAE) (“YFM”)
Master plates containing 400 μg of a molecule dissolved in 100 μL of dimethyl sulfoxide (DMSO) (equivalent to a 4000 ppm solution) are used. A master plate of assembled molecules contains 15 μL per well. To this plate, 135 μL of a 90:10 water/acetone mixture is added to each well. A robot (Biomek® NXP Laboratory Automation Workstation) is programmed to dispense 15 μL aspirations from the master plate into an empty 96-well shallow plate (“daughter” plate). There are 6 reps (“daughter” plates) created per master. The created “daughter” plates are then immediately infested with YFM larvae.
The day before plates are to be treated, mosquito eggs are placed in Millipore water containing liver powder to begin hatching (4 g. into 400 mL). After the “daughter” plates are created using the robot, they are infested with 220 μL of the liver powder/larval mosquito mixture (about 1 day-old larvae). After plates are infested with mosquito larvae, a non-evaporative lid is used to cover the plate to reduce drying. Plates are held at room temperature for 3 days prior to grading. After 3 days, each well is observed and scored based on mortality.

SMILES | pest or weed control at 50 µg/cm2 [1] | pest or weed control at 50 µg/cm2 [2] | YFM % Control [3]
Cc1ccc(C(C)C)c(N2C(=O)CS/C2=N\C(=O)N/N=C/c2ccc(-c3ncn(-c4ccc(OC(F)(F)F)cc4)n3)cc2)c1 [Compound A1, N—((Z)-3-(2-isopropyl-5-methylphenyl)-4-oxothiazolidin-2-ylidene)-2-((E)-4-(1-(4-(trifluoromethoxy)phenyl)-1H-1,2,4-triazol-3-yl)benzylidene)hydrazine-1-carboxamide] | 50 to 100% | 50 to 100% | –
CC(C)c1ccccc1N1C(=O)CS/C1=N\C(=O)N/N=C/c1ccc(-c2ncn(-c3ccc(OC(F)(F)F)cc3)n2)cc1 [Compound A2, N—((Z)-3-(2-Isopropylphenyl)-4-oxothiazolidin-2-ylidene)-2-((E)-4-(1-(4-(trifluoromethoxy)phenyl)-1H-1,2,4-triazol-3-yl)benzylidene)hydrazine-1-carboxamide] | 50 to 100% | 50 to 100% | A (80-100)
CCc1cccc(C)c1N1C(=O)CS/C1=N\C(=O)N/N=C/c1ccc(-c2ncn(-c3ccc(OC(F)(F)F)cc3)n2)cc1 [Compound A3, N—((Z)-3-(2-Ethyl-6-methylphenyl)-4-oxothiazolidin-2-ylidene)-2-((E)-4-(1-(4-(trifluoromethoxy)phenyl)-1H-1,2,4-triazol-3-yl)benzylidene)hydrazine-1-carboxamide] | 50 to 100% | 50 to 100% | –
Cc1ccc(Cl)c(N2C(=O)CS/C2=N\C(=O)N/N=C/c2ccc(-c3ncn(-c4ccc(OC(F)(F)F)cc4)n3)cc2)c1 [Compound A4, N—((Z)-3-(2-Chloro-5-methylphenyl)-4-oxothiazolidin-2-ylidene)-2-((E)-4-(1-(4-(trifluoromethoxy)phenyl)-1H-1,2,4-triazol-3-yl)benzylidene)hydrazine-1-carboxamide] | 50 to 100% | 50 to 100% | A (80-100)
CCOc1ccc(C)cc1N1C(=O)CS/C1=N\C(=O)N/N=C/c1ccc(-c2ncn(-c3ccc(OC(F)(F)F)cc3)n2)cc1 [Compound A5, N—((Z)-3-(2-Ethoxy-5-methylphenyl)-4-oxothiazolidin-2-ylidene)-2-((E)-4-(1-(4-(trifluoromethoxy)phenyl)-1H-1,2,4-triazol-3-yl)benzylidene)hydrazine-1-carboxamide] | 50 to 100% | 50 to 100% | –
Cc1ccc(OCC(F)(F)F)c(N2C(=O)CS/C2=N\C(=O)N/N=C/c2ccc(-c3ncn(-c4ccc(OC(F)(F)F)cc4)n3)cc2)c1 [Compound A6, N—((Z)-3-(5-Methyl-2-(2,2,2-trifluoroethoxy)phenyl)-4-oxothiazolidin-2-ylidene)-2-((E)-4-(1-(4-(trifluoromethoxy)phenyl)-1H-1,2,4-triazol-3-yl)benzylidene)hydrazine-1-carboxamide] | 50 to 100% | 50 to 100% | –
COc1ccc(N2C(=O)CS/C2=N\C(=O)N/N=C/c2ccc(-c3ncn(-c4ccc(OC(F)(F)F)cc4)n3)cc2)c(C)c1 [Compound A7, N—((Z)-3-(4-Methoxy-2-methylphenyl)-4-oxothiazolidin-2-ylidene)-2-((E)-4-(1-(4-(trifluoromethoxy)phenyl)-1H-1,2,4-triazol-3-yl)benzylidene)hydrazine-1-carboxamide] | 50 to 100% | 50 to 100% | A (80-100)
CCOc1ccccc1N1C(=O)CS/C1=N\C(=O)N/N=C/c1ccc(-c2ncn(-c3ccc(OC(F)(F)F)cc3)n2)cc1 [Compound A8, N—((Z)-3-(2-Ethoxyphenyl)-4-oxothiazolidin-2-ylidene)-2-((E)-4-(1-(4-(trifluoromethoxy)phenyl)-1H-1,2,4-triazol-3-yl)benzylidene)hydrazine-1-carboxamide] | 50 to 100% | 50 to 100% | –
Cc1ccc(C(F)(F)F)c(N2C(=O)CS/C2=N\C(=O)N/N=C/c2ccc(-c3ncn(-c4ccc(OC(F)(F)F)cc4)n3)cc2)c1 [Compound A9, N—((Z)-3-(5-methyl-2-(trifluoromethyl)phenyl)-4-oxothiazolidin-2-ylidene)-2-((E)-4-(1-(4-(trifluoromethoxy)phenyl)-1H-1,2,4-triazol-3-yl)benzylidene)hydrazine-1-carboxamide] | 50 to 100% | 50 to 100% | –
